System: not given
Experiment: not given
Details: not given

Row | melting point | Compound
1 | 152 to 156 °C | CCOC(=O)C1CN(C(C)=O)CCN1CC=CC(=O)Nc1cc2c(Nc3ccc(F)c(Cl)c3)ncnc2cc1OCC1CC1 (stereo not shown) [Example 18, 4-[(3-Chloro-4-fluoro-phenyl)amino]-6-({4-[2-(ethoxycarbonyl)-4-(methylcarbonyl)-piperazin-1-yl]-1-oxo-2-buten-1-yl}amino)-7-cyclopropylmethoxy-quinazoline]
2 | 133 to 138 °C | CCOC1CN(CC=CC(=O)Nc2cc3c(Nc4cccc(Br)c4)ncnc3cc2OC)CC(OCC)O1 (stereo not shown) [Example 7, 4-[(3-bromophenyl)amino]-6-{[4-(2,6-diethoxy-morpholin-4-yl)-1-oxo-2-buten-1-yl]amino}-7-methoxy-quinazoline]
3 | 199 °C | CCOC(=O)CN(C)CCCNC(=O)C=CC(=O)Nc1ccc2ncnc(Nc3cccc(Br)c3)c2c1 [Example 3, 4-[(3-Bromophenyl)amino]-6-{[4-(3-{N-[(ethoxycarbonyl)methyl]-N-methylamino)propylamino)-1,4-dioxo-2-buten-1-yl]amino}-quinazoline]
4 | 140 to 142 °C | CC1(C)CN(CC=CC(=O)Nc2cc3c(Nc4ccc(F)c(Cl)c4)ncnc3cc2OCC2CC2)CC(=O)O1 [Example 10, 4-[(3-chloro-4-fluorophenyl)amino]-6-{[4-(2,2-dimethyl-6-oxo-morpholin-4-yl)-1-oxo-2-buten-1-yl]amino}-7-cyclopropylmethoxy-quinazoline]
5 | 165 to 167 °C | CCOC(=O)CN1CCN(C(C)(C)C=CC(=O)Nc2cc3c(Nc4ccc(F)c(Cl)c4)ncnc3cc2OCC2CC2)CC1 [Example 17, 4-[(3-Chloro-4-fluoro-phenyl)amino]-6-[(4,4-dimethyl-4-{4-[(ethoxycarbonyl)methyl]-piperazin-1-yl)-1-oxo-2-buten-1-yl)amino]-7-cyclopropylmethoxy-quinazoline]
6 | 110 to 114 °C | CCOC(=O)CN(C)CC=CC(=O)Nc1cc2c(Nc3cccc(C)c3)ncnc2cc1OC [Example 5, 4-[(3-methylphenyl)amino]-6-[(4-{N-[(ethoxycarbonyl)methyl]-N-methylamino}-1-oxo-2-buten-1-yl)amino]-7-methoxy-quinazoline]
7 | 140 °C (dec.) | C=CC(=O)Nc1cc2c(Nc3cccc(Br)c3)ncnc2cc1OCCCN1CCN(CC(=O)O)CC1 [Example 6, 4-[(3-Bromophenyl)amino]-7-{3-[4-(carboxymethyl)-piperazin-1-yl]propyloxy}-6-[(vinylcarbonyl)amino]-quinazoline]
8 | 174 °C | O=C(C=CCN1CCN(CC(=O)OCc2ccccc2)CC1)Nc1cc2c(Nc3ccc(F)c(Cl)c3)ncnc2cc1OCC1CC1 [Example 12, 4-[(3-Chloro-4-fluoro-phenyl)amino]-6-[(4-{4-[(benzyloxycarbonyl)methyl]-piperazin-1-yl)-1-oxo-2-buten-1-yl}amino]-7-cyclopropylmethoxy-quinazoline]
9 | 183 to 185 °C | CCOC(=O)CCN1CCN(CC=CC(=O)Nc2cc3c(Nc4ccc(F)c(Cl)c4)ncnc3cc2OCC2CC2)CC1 [Example 16, 4-[(3-Chloro-4-fluoro-phenyl)amino]-6-[(4-{4-[2-(ethoxycarbonyl)-ethyl]-piperazin-1-yl}-1-oxo-2-buten-1-yl)amino]-7-cyclopropylmethoxy-quinazoline]
10 | 170 to 173 °C | CCOC(=O)C1CN(S(C)(=O)=O)CCN1CC=CC(=O)Nc1cc2c(Nc3ccc(F)c(Cl)c3)ncnc2cc1OCC1CC1 (stereo not shown) [Example 15, 4-[(3-Chloro-4-fluoro-phenyl)amino]-6-({4-[2-(ethoxycarbonyl)-4-(methylsulfonyl)-piperazin-1-yl]-1-oxo-2-buten-1-yl)amino)-7-cyclopropylmethoxy-quinazoline]

Molecular target: T1, human EGF-R (Homo sapiens, UniProt P00533)
T1 construct: expressed in transfected cells; host or cells: F/L-HERc cells, derived from the murine IL-3-dependent line FDC-P1 ('FDC-PI' [sic]); retroviral vector LXSN, packaging line GP+E86
Experiment: Inhibition of EGF-dependent proliferation of F/L-HERc cells (Cell Titer 96 AQueous assay)
Type: cell-based
Details: F/L-HERc cells (murine IL-3-dependent line expressing human EGF-R), stimulated with EGF 20 ng/ml, 48 hours at 37° C.
Excerpt: A cell line of murine origin dependent on interleukin-3 (IL-3) which was genetically modified to express functional human EGF-R was used here. The proliferation of these cells known as F/L-HERc can therefore be stimulated either by murine IL-3 or by EGF (cf. von Rüden, T. et al. in EMBO J. 7, 2749-2756 (1988) and Pierce, J. H. et al. in Science 239. 628-631 (1988)).
The starting material used for the F/L-HERc cells was the cell line FDC-PI, the production of which has been described by Dexter, T. M. et al, in J. Exp. Med. 152, 1036-1047 (1980). alternatively, however, other growth-factor-dependent cells may also be used (cf. for example Pierce, J. H. et al. in Science 239, 628-631 (1988), Shibuya, H. et al. in Cell 70, 57-67 (1992) and alexander, W. S. et al. in EMBO J. 10, 3683-3691 (1991)). For expressing the human EGF-R cDNA (cf. Ullrich, A. et al. in Nature 309, 418-425 (1984)) recombinant retroviruses were used as described by von Rüden, T. et al., EMBO J. 7, 2749-2756 (1988), except that the retroviral vector LXSN (cf. Miller, A. D. et al. in BioTechniques 1, 980-990 (1989)) was used for the expression of the EGF-R cDNA and the line GP+E86 (cf, Markowitz, D, et al. in J. Virol. 62, 1120-1124 (1988)) was used as the packaging cell.
The test was performed as follows: • F/L-HERC cells were cultivated in RPMI/1640 medium (BioWhittaker), supplemented with 10% foetal calf serum (FCS, Boehringer Mannheim). 2 mM glutamine (BioWhittaker), standard antibiotics and 20 ng/ml of human EGF (Promega), at 37° C. and 5% CO2. In order to investigate the inhibitory activity of the compounds according to the invention, 1.5×10^4 cells per well were cultivated in triplicate in 96-well plates in the above medium ([…]), the cell proliferation being stimulated with either EGF (20 ng/ml) or murine IL-3. The IL-3 used was obtained from culture supernatants of the cell line X63/0 mIL-3 (cf. Karasuyama, 4. et al. in Eur. J. Immunol. 18, 97-104 (19881). The compounds according to the invention were dissolved in 100% dimethylsulphoxide (DMSO) and added to the cultures in various dilutions, the maximum DMSO concentration being 1%. The cultures were incubated for 48 hours at 37° C.
In order to determine the inhibitory activity of the compounds according to the invention the relative cell number was measured in O.D. units using the Cell Titer 96™ AQueous Non-Radioactive Cell Proliferation Assay (Promega). The relative cell number was calculated as a percentage of the control (F/LHERc cells without inhibitor) and the concentration of active substance which inhibits the proliferation of the cells by 50% (IC50) was derived therefrom.

T1 sequence (P00533 25-1210): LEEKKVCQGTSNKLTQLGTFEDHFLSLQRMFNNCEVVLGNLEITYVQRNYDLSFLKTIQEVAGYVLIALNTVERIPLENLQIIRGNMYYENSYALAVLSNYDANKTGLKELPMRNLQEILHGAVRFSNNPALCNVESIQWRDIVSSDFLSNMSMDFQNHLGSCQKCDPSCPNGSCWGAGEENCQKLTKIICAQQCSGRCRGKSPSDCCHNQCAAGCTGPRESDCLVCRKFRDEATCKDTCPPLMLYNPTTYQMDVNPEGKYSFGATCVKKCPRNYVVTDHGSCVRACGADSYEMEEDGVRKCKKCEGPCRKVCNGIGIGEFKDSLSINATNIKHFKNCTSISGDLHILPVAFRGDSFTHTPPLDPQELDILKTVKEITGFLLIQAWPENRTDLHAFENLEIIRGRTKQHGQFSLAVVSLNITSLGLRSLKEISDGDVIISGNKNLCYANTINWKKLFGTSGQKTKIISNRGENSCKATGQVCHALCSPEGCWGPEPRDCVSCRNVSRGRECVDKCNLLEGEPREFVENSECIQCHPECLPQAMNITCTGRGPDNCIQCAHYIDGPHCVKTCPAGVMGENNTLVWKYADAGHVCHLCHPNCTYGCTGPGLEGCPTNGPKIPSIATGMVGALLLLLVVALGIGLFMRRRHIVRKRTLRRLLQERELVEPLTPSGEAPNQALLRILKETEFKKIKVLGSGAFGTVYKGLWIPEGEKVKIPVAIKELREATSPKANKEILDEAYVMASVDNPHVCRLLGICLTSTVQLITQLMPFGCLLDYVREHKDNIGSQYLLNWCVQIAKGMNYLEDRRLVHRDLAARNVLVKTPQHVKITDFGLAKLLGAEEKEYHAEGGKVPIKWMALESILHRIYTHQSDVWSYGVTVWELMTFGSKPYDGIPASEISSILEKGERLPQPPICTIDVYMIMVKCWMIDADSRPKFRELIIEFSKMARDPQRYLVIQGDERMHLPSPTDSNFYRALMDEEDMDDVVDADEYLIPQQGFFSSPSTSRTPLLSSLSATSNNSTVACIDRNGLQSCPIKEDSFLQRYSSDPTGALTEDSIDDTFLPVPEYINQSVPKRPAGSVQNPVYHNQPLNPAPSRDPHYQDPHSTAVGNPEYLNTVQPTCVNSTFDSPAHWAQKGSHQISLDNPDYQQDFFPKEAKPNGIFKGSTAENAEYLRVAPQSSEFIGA

Row | IC50 | Compound
11 | 9 nM | CCOC(=O)CN(C)CC=CC(=O)Nc1cc2c(N[C@H](C)c3ccccc3)ncnc2cc1OC [5(2), (R)-4-[(1-phenylethyl)amino]-6-[(4-(N-[(ethoxycarbonyl)methyl]-N-methylamino}-1-oxo-2-buten-1-yl)amino]-7-methoxy-quinazoline]
12 | 7.4 nM | CCOC(=O)CN1CCN(CC=CC(=O)Nc2cc3c(Nc4ccc(F)c(Cl)c4)ncnc3cc2OCC2CC2)CC1 [5(18)]
13 | 18 nM | CCOC(=O)CN(C)CC=CC(=O)Nc1ccc2ncc(C#N)c(Nc3cccc(Br)c3)c2c1 [5(12), 4-[(3-bromophenyl)amino]-3-cyano-6-[(4-{N-[(ethoxycarbonyl)methyl]-N-methylamino}-1-oxo-2-buten-1-yl)amino]-quinoline]
14 | 58 nM | CCOC(=O)CCN(CC=CC(=O)Nc1cc2c(Nc3ccc(F)c(Cl)c3)ncnc2cc1OCC1CC1)CC(=O)OCC [5(22)]
15 | 15 nM | C=CC(=O)Nc1cc2c(Nc3cccc(Br)c3)ncnc2cc1OCCCN1CCN(CCCC(=O)OCC)CC1 [1(4), 4-[(3-bromophenyl)amino]-7-(3-{4-[3-(ethoxycarbonyl)propyl]-piperazin-1-yl}propyloxy)-6-[(vinylcarbonyl)amino]-quinazoline]
16 | 1.8 nM | CCOC1CN(CC=CC(=O)Nc2cc3c(Nc4cccc(Br)c4)ncnc3cc2OC)CCO1 (stereo not shown) [5(10), 4-[(3-bromophenyl)amino]-6-([4-(2-ethoxy-morpholin-4-yl)-1-oxo-2-buten-1-yl]amino)-7-methoxy-quinazoline]
17 | 15 nM | C=CC(=O)Nc1cc2c(Nc3cccc(Br)c3)ncnc2cc1OC1CCN(CC(=O)OCC)CC1 [1(6), 4-[(3-bromophenyl)amino]-7-((1-[(ethoxycarbonyl)methyl]-piperidin-4-yl)oxy)-6-[(vinylcarbonyl)amino]-quinazoline]
18 | 3 nM | COC(=O)[C@@H]1CCCN1CC=CC(=O)Nc1cc2c(Nc3ccc(F)c(Cl)c3)ncnc2cc1OCC1CC1 [5(36)]
19 | 74 nM | O=C(C=CCN1CCOC(=O)C1)Nc1cc2c(Nc3ccc(F)c(Cl)c3)ncnc2cc1OCC1CC1 [5(25), 4-[(3-chloro-4-fluorophenyl)amino]-6-{[4-(2-oxo-morpholin-4-yl)-1-oxo-2-buten-1-yl]amino}-7-cyclopropylmethoxy-quinazoline]
20 | 1.9 nM | CCOC(=O)CN1CCN(CC=CC(=O)Nc2cc3c(Nc4ccc(F)c(Cl)c4)ncnc3cc2OC2CCC2)CC1 [5(29), 4-[(3-chloro-4-fluorophenyl)amino]-6-[(4-{4-[(ethoxycarbonyl)methyl]-piperazin-1-yl)-1-oxo-2-buten-1-yl}amino]-7-cyclobutyloxy-quinazoline]
21 | 109 nM | CCOC(=O)CN(CC=CC(=O)Nc1cc2c(Nc3ccc(F)c(Cl)c3)ncnc2cc1OCC1CC1)CCSC(C)=O [8(1), 4-[(3-chloro-4-fluorophenyl)amino]-6-[(4-(N-[(ethoxycarbonyl)methyl]-N-[2-(acetylsulphanyl)ethyl]amino)-1-oxo-2-buten-1-yl)amino]-7-cyclopropylmethoxy-quinazoline]
22 | 8.7 nM | C=CC(=O)Nc1cc2c(Nc3cccc(Br)c3)ncnc2cc1OCCCN(C)CC(=O)OCC [1(13), 4-[(3-bromophenyl)amino]-7-(3-{N-[(ethoxycarbonyl)methyl]-N-methylamino)propyloxy)-6-[(vinylcarbonyl)amino]-quinazoline]
23 | 1.8 nM | COc1cc2ncnc(Nc3cccc(Br)c3)c2cc1NC(=O)C=CCN(C)CC(OC)OC [5(8), 4-[(3-bromophenyl)amino]-6-({4-[N-(2,2-dimethoxyethyl)-N-methylamino]-1-oxo-2-buten-1-yl}amino)-7-methoxy-quinazoline]

Row | Compound | IC50
24 | C=CC(=O)Nc1cc2c(Nc3cccc(Br)c3)ncnc2cc1OCCCN1CCN(CP(=O)(OCC)OCC)CC1 [1(10), 4-[(3-bromophenyl)amino]-7-(3-{4-[(diethoxyphosphoryl)-methyl]-piperazin-1-yl}propyloxy)-6-[(vinylcarbonyl)amino]-quinazoline] | 21 nM
25 | CCOP(=O)(CN(C)CC=CC(=O)Nc1cc2c(Nc3cccc(Br)c3)ncnc2cc1OC)OCC [2(4), 4-[(3-bromophenyl)amino]-6-[(4-{N-[(diethoxyphosphoryl)methyl]-N-methylamino}-1-oxo-2-buten-1-yl)amino]-7-methoxy-quinazoline] | 6.7 nM

From US6972288B1, “4-amino-quinazoline and quinoline derivatives having an inhibitory effect on signal transduction mediated by tyrosine kinases” (Boehringer Ingelheim Pharma KG, priority 1999, dated 2005)
